From US10150737B2, “Compounds for controlling arthropods” (priority 2013, dated 2018)
Like-named read-outs stand apart in the source and are kept apart here.

Columns and labels:
[1] = logP determination by HPLC on a reversed-phase column (C18); assay type: physicochemical; details: for logP^a): HPLC-MS method a); for log P: HPLC-MS
Boophilus microplus = Boophilus microplus - injection test; assay type: in vivo; details: application rate 20 μg/animal, injection into engorged adult female ticks, after 7 days; for pest or weed control at 0.02 mg: Rhipicephalus microplus, 168 h, read-out: efficacy (laying of fertile eggs)
Description: (§1) Solvent: dimethyl sulphoxide
To produce an appropriate active ingredient formulation, 10 mg of active ingredient are mixed with 0.5 ml of solvent and the concentrate is diluted with solvent to the desired concentration.
1 μl of the active ingredient solution is injected into the abdomen of 5 engorged adult female cattle ticks (Boophilus microplus). The animals are transferred into dishes and kept in a climate-controlled room.
Efficacy is assessed after 7 days by laying of fertile eggs. Eggs which are not visibly fertile are stored in a climate-controlled cabinet until the larvae hatch after about 42 days. An efficacy of 100% means that none of the ticks has laid any fertile eggs; 0% means that all the eggs are fertile.

Ctenocephalides felis = Ctenocephalides felis - oral test; assay type: in vivo; details: application rate 100 ppm in citrated cattle blood; after 2 days
Description: as §1
For the purpose of producing an appropriate active ingredient formulation, 10 mg of active ingredient are mixed with 0.5 ml of dimethyl sulphoxide. Dilution with citrated cattle blood gives the desired concentration.
About 20 unfed adult cat fleas (Ctenocephalides felis) are placed into a chamber which is closed at the top and bottom with gauze. A metal cylinder whose bottom end is closed with parafilm is placed onto the chamber. The cylinder contains the blood/active ingredient preparation, which can be imbibed by the fleas through the parafilm membrane.
After 2 days, the kill in % is determined. 100% means that all of the fleas have been killed; 0% means that none of the fleas have been killed.

Phaedon cochleariae = Phaedon cochleariae - spray test; assay type: in vivo; details: larvae on Chinese cabbage leaf discs, after 7 days
Description: Solvent: 78.0 parts by weight of acetone and 1.5 parts by weight of dimethylformamide
Emulsifier: alkylaryl polyglycol ether
To produce an appropriate active ingredient formulation, 1 part by weight of active ingredient is dissolved using the specified parts by weight of solvent and made up with water containing an emulsifier concentration of 1000 ppm until the desired concentration is attained. To produce further test concentrations, the preparation is diluted with emulsifier-containing water.
Discs of Chinese cabbage leaves (Brassica pekinensis) are sprayed with an active ingredient formulation of the desired concentration and, after drying, populated with larvae of the mustard beetle (Phaedon cochleariae).
After 7 days, efficacy in % is determined. 100% means that all the beetle larvae have been killed; 0% means that no beetle larvae have been killed.

[2] = reversed-phase column (C18), Table I-T3
[3] = HPLC, C18 reversed phase, acetonitrile/water with formic acid, EEC Directive 79/831 Annex V.A8

Structure (SMILES) | log P [1, 2] | also measured
Nc1c(Cl)cc(C(O)(C(F)(F)F)C(F)(F)F)cc1Cl [2-(4-amino-3,5-dichlorphenyl)-1,1,1,3,3,3-hexafluoropropan-2-ol] |  | logP [1]: 3.04
Cc1cc(C(F)(C(F)(F)F)C(F)(F)F)cc(C)c1-c1ccn(-c2ccc(Cl)c(C(=O)NC3CC3)c2)n1 [I-T2-1, 2-chloro-N-cyclopropyl-5-[3-[2,6-dimethyl-4-[1,2,2,2-tetrafluoro-1-(trifluoromethyl)ethyl]phenyl]pyrazol-1-yl]benzamide] |  | pest or weed control at 0.02 mg (Boophilus microplus): 100%
Cc1cc(C(F)(C(F)(F)F)C(F)(F)F)cc(C)c1-n1cc(-c2cc(C(=O)NC3CC3)c(Cl)cc2F)cn1 [I-T3-14] |  | logP^a) [1]: 4.5; logP^a) [1, 2]: 4.5
Cc1ccc(C(=O)NC2CC2)cc1-c1cnn(-c2c(C)cc(C(F)(C(F)(F)F)C(F)(F)F)cc2C)c1 [I-T3-16] |  | efficacy (kill) (Ctenocephalides felis): 80%; logP^a) [1]: 4.4; logP^a) [1, 2]: 4.4
COc1cc(C(F)(F)F)cc(F)c1-n1cc(-c2ccc(Cl)c(C(=O)NC3CC3)c2)cn1 [I-T3-50, 2-chloro-N-cyclopropyl-5-[1-[2-fluoro-6-methoxy-4-(trifluoromethyl)phenyl]pyrazol-4-yl]benzamide] |  | pest or weed control at 0.02 mg (Boophilus microplus): 100%
CN(C(=O)c1cc(-c2cnn(-c3ccc(C(F)(C(F)(F)F)C(F)(F)F)cc3C(F)(F)F)c2)ccc1Cl)C1CC1 [I-T3-134] | 4.9 | logP [1, 3]: 4.88; logP^a) ([1]; reversed-phase column (C18)): 4.9
O=C(NC1CC1)c1cc(-c2cnn(-c3c(Cl)cc(C(F)(C(F)(F)F)C(F)(F)F)cc3Cl)c2)cnc1N1CCCC1 [I-T3-135] | 4.3 | efficacy (kill) (Ctenocephalides felis): 100%; logP^a) ([1]; reversed-phase column (C18)): 4.3
Cc1cc(C(F)(C(F)(F)F)C(F)(F)F)cc(C)c1-n1cc(-c2cnc(C3CC3)c(C(=O)N(C)C3CC3)c2)cn1 [I-T3-142] | 4.6 | efficacy (laying of fertile eggs) (Boophilus microplus): 100%; logP^a) ([1]; reversed-phase column (C18)): 4.6
CC[S+]([O-])c1cc(C(F)(C(F)(F)F)C(F)(F)F)cnc1-n1cc(-c2ccc(Cl)c(C(=O)NC3(C#N)CC3)c2)cn1 (stereo not shown) [I-T3-153] | 3.7 | efficacy (Phaedon cochleariae; application rate 100 g/ha): 100%; logP^a) ([1]; reversed-phase column (C18)): 3.7
CCSc1cc(C(F)(C(F)(F)F)C(F)(F)F)cnc1-n1cc(-c2ccc(Cl)c(C(=O)NC3CC3)c2)cn1 [I-T3-156, 2-Chloro-N-cyclopropyl-5-{1-[3-(ethylsulphanyl)-5-(1,1,1,2,3,3,3-heptafluoropropan-2-yl)pyridin-2-yl]-1H-pyrazol-4-yl}benzamide] | 4.7 | logP^a) ([1]; reversed-phase column (C18)): 4.7
CC[S+]([O-])c1cc(C(F)(C(F)(F)F)C(F)(F)F)cnc1-n1cc(-c2ccc(Cl)c(C(=O)NC3CC3)c2)cn1 (stereo not shown) [I-T3-157, 2-Chloro-N-cyclopropyl-5-{1-[3-(ethylsulphinyl)-5-(1,1,1,2,3,3,3-heptafluoropropan-2-yl)pyridin-2-yl]-1H-pyrazol-4-yl}benzamide] | 3.8 | logP^a) ([1]; reversed-phase column (C18)): 3.8
NC(=S)C1(NC(=O)c2cc(-c3cnn(-c4c(Cl)cc(C(F)(C(F)(F)F)C(F)(F)F)cc4C(F)(F)F)c3)cnc2Cl)CC1 [I-T3-159] | 3.8 | logP^a) ([1]; reversed-phase column (C18)): 3.8
CSc1cc(C(F)(C(F)(F)F)C(F)(F)F)cnc1-n1cc(-c2ccc(Cl)c(C(=O)NC3(C#N)CC3)c2)cn1 [I-T3-166] | 4.3 | 
N#CC1(NC(=O)c2cc(-c3cnn(-c4ncc(C(F)(C(F)(F)F)C(F)(F)F)cc4SCC(F)(F)F)c3)ccc2Cl)CC1 [I-T3-171] | 4.5 | efficacy (Phaedon cochleariae; application rate 100 g/ha): 100%
N#CC1(NC(=O)c2cc(-c3cnn(-c4c(F)c(F)c(C(F)(F)F)c(F)c4F)c3)ccc2Cl)CC1 [I-T3-188] | 3.4 | efficacy (Phaedon cochleariae; application rate 500 g/ha): 100%
O=C(NC1CC1)c1cc(-c2cnn(-c3c(Cl)cc(C(F)(C(F)(F)F)C(F)(F)F)cc3C(F)F)c2)ccc1Cl [I-T3-193] | 4.4 | 
NC(=O)C1(NC(=O)c2cc(-c3cnn(-c4c(F)c(F)c(C(F)(F)F)c(F)c4F)c3)ccc2Cl)CC1 [I-T3-194] | 2.8 | 
CCS(=O)(=O)c1cc(C(F)(C(F)(F)F)C(F)(F)F)cc(Cl)c1-n1cc(-c2ccc(Cl)c(C(=O)NC3(C#N)CC3)c2)cn1 [I-T3-201] | 4.0 | 
CCSc1cc(C(F)(C(F)(F)F)C(F)(F)F)cc(C)c1-n1cc(-c2ccc(Cl)c(C(=O)NC3(C#N)CC3)c2)cn1 [I-T3-202] | 4.5 | 
CCSc1cc(C(F)(C(F)(F)F)C(F)(F)F)cc(C)c1-n1cc(-c2ccc(Cl)c(C(=O)NC3CC3)c2)cn1 [I-T3-203] | 4.6 | 
CN(C(=O)c1cc(-c2cnn(-c3c(Cl)cc(C(F)(C(F)(F)F)C(F)(F)F)cc3C#N)c2)cnc1Cl)C1CC1 [I-T3-204] | 3.9 | 
N#Cc1cc(C(F)(C(F)(F)F)C(F)(F)F)cc(Cl)c1-n1cc(-c2cnc(Cl)c(C(=O)NC3CC3)c2)cn1 [I-T3-205] | 3.5 | 

Structure (SMILES) | log P [1, 2] | also measured
CC[S+]([O-])c1cc(C(F)(C(F)(F)F)C(F)(F)F)cc(C)c1-n1cc(-c2ccc(Cl)c(C(=O)NC3(C#N)CC3)c2)cn1 (stereo not shown) [I-T3-206] | 3.6 | 
N#Cc1cc(C(F)(C(F)(F)F)C(F)(F)F)cc(Cl)c1-n1cc(-c2cnc(Cl)c(C(=O)NC3(C#N)CC3)c2)cn1 [I-T3-207] | 3.5 | 
CN(C(=O)c1cc(-c2cnn(-c3c(Cl)cc(C(F)(C(F)(F)F)C(F)(F)F)cc3OC(F)(F)F)c2)cnc1Cl)C1CC1 [I-T3-208] | 4.6 | 
CCS(=O)(=O)c1cc(C(F)(C(F)(F)F)C(F)(F)F)cc(C)c1-n1cc(-c2ccc(Cl)c(C(=O)NC3(C#N)CC3)c2)cn1 [I-T3-209] | 3.8 | 
CCS(=O)(=O)c1cc(C(F)(C(F)(F)F)C(F)(F)F)cc(C)c1-n1cc(-c2ccc(Cl)c(C(=O)NC3CC3)c2)cn1 [I-T3-210] | 3.9 | 
CCOc1cc(C(F)(C(F)(F)F)C(F)(F)F)cc(OCC)c1-n1cc(-c2cnc(Cl)c(C(=O)N(C)C3CC3)c2)cn1 [I-T3-211] | 4.7 | 
N#CC1(NC(=O)c2cc(-c3cnn(-c4c(Cl)cc(C(F)(C(F)(F)F)C(F)(F)F)cc4I)c3)ccc2Cl)CC1 [I-T3-212] | 4.3 | 
O=C(NC1CC1)c1cc(-c2cnn(-c3c(Cl)cc(C(F)(C(F)(F)F)C(F)(F)F)cc3I)c2)ccc1Cl [I-T3-213] | 4.4 | 
O=C(NC1CC1)c1cc(-c2cnn(-c3c(Cl)cc(C(F)(C(F)(F)F)C(F)(F)F)cc3OC(F)F)c2)ccc1Cl [I-T3-214] | 4.3 | 
N#CC1(NC(=O)c2cc(-c3cnn(-c4c(Cl)cc(C(F)(C(F)(F)F)C(F)(F)F)cc4OC(F)F)c3)ccc2Cl)CC1 [I-T3-215] | 4.1 | 
CN(C(=O)c1cc(-c2cnn(-c3c(Cl)cc(C(F)(C(F)(F)F)C(F)(F)F)cc3OC(F)F)c2)ccc1Cl)C1CC1 [I-T3-216] | 4.7 | 
CN(C(=O)c1cc(-c2cnn(-c3c(Cl)cc(C(F)(C(F)(F)F)C(F)(F)F)cc3OC(F)F)c2)cnc1Cl)C1CC1 [I-T3-217] | 4.2 | 
N#CC1(NC(=O)c2cc(-c3cnn(-c4c(Cl)cc(C(F)(C(F)(F)F)C(F)(F)F)cc4OC(F)F)c3)cnc2Cl)CC1 [I-T3-218] | 3.7 | 
CN(C(=O)c1cc(-c2cnn(-c3c(Cl)cc(C(F)(C(F)(F)F)C(F)(F)F)cc3OC(F)(F)F)c2)ccc1Cl)C1CC1 [I-T3-219] | 5.1 | 
CN(C(=O)c1cc(-c2cnn(-c3c(Cl)cc(C(O)(C(F)(F)F)C(F)(F)F)cc3Cl)c2)cnc1Cl)C1CC1 [I-T3-220] | 3.4 | efficacy (Phaedon cochleariae; application rate 100 g/ha): 100%
O=C(NC1CC1)c1cc(-c2cnn(-c3c(I)cc(C(F)(C(F)(F)F)C(F)(F)F)cc3OC(F)(F)F)c2)ccc1Cl [I-T3-224] | 4.7 | 
CN(C(=O)c1cc(-c2cnn(-c3c(I)cc(C(F)(C(F)(F)F)C(F)(F)F)cc3OC(F)(F)F)c2)ccc1Cl)C1CC1 [I-T3-225] | 5.2 | 
N#CC1(NC(=O)c2cc(-c3cnn(-c4c(I)cc(C(F)(C(F)(F)F)C(F)(F)F)cc4OC(F)(F)F)c3)ccc2Cl)CC1 [I-T3-226] | 4.6 | 
O=C(NC1CC1)c1cc(-c2cnn(-c3c(I)cc(C(F)(C(F)(F)F)C(F)(F)F)cc3C(F)(F)F)c2)ccc1Cl [I-T3-227] | 4.5 | 
N#CC1(NC(=O)c2cc(-c3cnn(-c4c(I)cc(C(F)(C(F)(F)F)C(F)(F)F)cc4C(F)(F)F)c3)ccc2Cl)CC1 [I-T3-228] | 4.4 | 
CN(C(=O)c1cc(-c2cnn(-c3c(I)cc(C(F)(C(F)(F)F)C(F)(F)F)cc3C(F)(F)F)c2)ccc1Cl)C1CC1 [I-T3-229] | 5.1 | 
Cc1cc(C(F)(C(F)(F)F)C(F)(F)F)cc(C)c1-n1ccc(-c2ccc(Cl)c(C(=O)NC3(C#N)CC3)c2)c1 [I-T46-1] |  | logP [1, 3]: 4.90
